Like-named read-outs stand apart in the source and are kept apart here.
Key:
NCI-H2122 cells = assay: NCI-H2122 CTG proliferation assay (120 h) (NSCLC, G12C); assay type: cell-based; settings: Homo sapiens
Method in brief: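 Proliferation was read by CellTiter-Glo luminescence after 120 h of compound exposure, starting one day after seeding 200 NCI-H2122 (G12C) cells per well in RPMI/10% FCS. RLU relative to DMSO wells gave percent viability, and four-parameter nonlinear regression gave IC50.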

GP2D cells = assay: GP2D proliferation assay (120 h) (colorectal cancer, G12D); assay type: cell-based
Procedure: GP2D Proliferation Assay (120 h) (Colorectal Cancer, G12D)
GP2D cells (ATCC No. CRL-5807) are dispensed into white 384-well plates, flat and white bottom (Perkin Elmer, 6007680) at a density of 500 cells per well in 40 μl DMEM (Sigma, D6429)+1×GlutaMAX (Gibco, 35050038)+10% FCS (fetal calf serum). […] Compounds (10 mM stock in DMSO) are added at logarithmic dose series using the HP Digital Dispenser D300 (Tecan), including DMSO controls and normalizing for added DMSO. For the TO time point measurement, untreated cells are analyzed at the time of compound addition. Plates are incubated for 120 h, and cell viability is measured using CellTiter-Glo luminescent cell viability reagent (Promega product code G7570). Viability (stated as percent of control) is defined as relative luminescence units RLU of each well divided by the RLU of cells in DMSO controls. IC50 values are determined from viability measurements by non-linear regression using a four parameter model.

CYP3A4 = CYP3A4 (Homo sapiens (Human), UniProt P08684); assay: Mechanism based inhibition of CYP3A4 assay (MBI 3A4); assay type: in vitro ADME; settings: hydroxy-midazolam formation after 30 min vs 0 min preincubation, 25 uM, human liver microsomes
Method in brief: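 Readout is hydroxy-midazolam formed after 30 min preincubation relative to 0 min, measured by LC/MS-MS after acetonitrile quench. Following preincubation, samples diluted 1:10 and incubated 15 min with midazolam substrate.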

[1] = Caco-2 assay (permeability PappAB, PappBA, efflux ratio); assay type: in vitro ADME; settings: human, Caco-2, 10 μM test compound, pH 7.4; for Papp A→B at 90 min, 10 μM: apical to basolateral; for efflux ratio at 90 min, 10 μM: efflux ratio PappBA/PappAB, read-out: Caco ER
Method in brief: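 Bidirectional permeability (apical-to-basolateral and reverse) through polarized Caco-2 monolayers, BSA 0.25% on each side, 37 °C. Donor and receiver sampled at 0-90 min after 25-30 min preincubation, analysed by HPLC/MS/MS. Apparent permeabilities derived from transfer rate normalised to area and t=0 donor concentration; ER taken as PappBA over PappAB.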

MKN1 cells = assay: MKN1 CTG proliferation assay (120 h) (gastric cancer, wt amplified); assay type: cell-based
Method in brief: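 MKN1 gastric cancer cells (200–500 per well, RPMI + 10% FCS) given a logarithmic compound dose series and incubated 120 h. Viability by CellTiter-Glo luminescence as percent of DMSO controls. IC50 by four-parameter non-linear regression.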

[2] = Homo sapiens, MKN-1, assay 3, CTG 120 h, read-out: MKN1 (assay 3) IC50
[3] = Homo sapiens, MKN-1, assay 2, CTG 120 h, read-out: MKN1 (assay 2) IC50

Chain of CYP3A4 (P08684 whole entry): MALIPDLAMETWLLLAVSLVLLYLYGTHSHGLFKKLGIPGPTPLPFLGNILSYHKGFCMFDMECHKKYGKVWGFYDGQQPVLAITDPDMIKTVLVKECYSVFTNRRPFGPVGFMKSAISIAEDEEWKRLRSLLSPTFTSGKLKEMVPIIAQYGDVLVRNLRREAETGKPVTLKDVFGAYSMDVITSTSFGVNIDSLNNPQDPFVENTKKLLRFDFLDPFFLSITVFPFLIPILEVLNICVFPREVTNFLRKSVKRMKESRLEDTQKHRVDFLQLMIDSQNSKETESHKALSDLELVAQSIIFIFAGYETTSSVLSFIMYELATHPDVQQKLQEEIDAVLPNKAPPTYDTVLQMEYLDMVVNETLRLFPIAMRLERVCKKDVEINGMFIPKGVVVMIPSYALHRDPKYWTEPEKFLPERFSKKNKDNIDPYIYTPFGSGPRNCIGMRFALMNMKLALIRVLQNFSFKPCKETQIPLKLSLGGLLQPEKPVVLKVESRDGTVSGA

Compound | IC50 (NCI-H2122 cells) [nM] | IC50 (GP2D cells) [nM] | MBI 3A4 (CYP3A4) [%] | Papp A→B at 90 min, 10 μM [1] [×10⁻⁶ cm/s] | efflux ratio at 90 min, 10 μM [1] | IC50 (MKN1 cells; [2]) [nM] | IC50 (MKN1 cells; [3]) [nM] | IC50 (MKN1 cells; assay 3, CTG 120 h, read-out: MKN1 (assay 3) IC50) [nM]
C[C@H](Oc1cc(N2CCNC[C@]23CCOC3)nc(-c2onc3c2CCC[C@@]32CCCc3sc(N)c(C#N)c32)n1)[C@@H]1CCCN1C [I-12] | 3280 | 1 | 56 | 0.5 | 70.2 | – | – | –
C[C@H](Oc1cc(N2CCNC[C@@]23CCOC3)nc(-c2onc3c2CCC[C@@]32CCCc3sc(N)c(C#N)c32)n1)[C@@H]1CCCN1C [I-13] | 6470 | – | 48 | 0.4 | 49.8 | 679 | – | –
C[C@H](Oc1cc(-c2cn(C)nn2)nc(-c2onc3c2CCC[C@@]32CCCc3sc(N)c(C#N)c32)n1)[C@@H]1CCCN1C [I-16] | – | 673 | – | – | – | – | – | –
C[C@H](Oc1cc(-n2cc3c(n2)CCN(C)C3)nc(-c2noc3c2CCC[C@@]32CCCc3sc(N)c(C#N)c32)n1)[C@@H]1CCCN1C [II-141] | 2830 | 4 | 88 | – | 7.9 | – | – | –
C[C@H](Oc1cc(N2CCOC2=O)nc(-c2noc3c2CCC[C@@]32CCCc3sc(N)c(C#N)c32)n1)[C@@H]1CCCN1C [II-143] | 584 | 59 | – | 4.5 | 7.3 | – | – | –
C[C@H](Oc1cc(-c2ccn(C)n2)nc(-c2noc3c2CCC[C@@]32CCCc3sc(N)c(C#N)c32)n1)[C@@H]1C[C@H](F)CN1C [II-144] | 3690 | > 1000 | 60 | 15 | 0.7 | – | – | –
C[C@H](Oc1cc(N2CCN(C)C3(COC3)C2)nc(-c2noc3c2CCC[C@@]32CCCc3sc(N)c(C#N)c32)n1)[C@@H]1C[C@@H](F)CN1C [II-148] | 2220 | 11 | 55 | 12 | 3.3 | – | – | –
C[C@H](Oc1cc(N2CCN(C)C3(CCOC3)C2)nc(-c2noc3c2CCC[C@@]32CCCc3sc(N)c(C#N)c32)n1)[C@@H]1C[C@@H](F)CN1C (stereo partly drawn) [II-151] | 3580 | 32 | – | – | 2 | – | – | –
CO[C@@H]1C[C@@H]([C@H](C)Oc2cc(N3CCN(C)C4(CC4)C3)nc(-c3noc4c3CCC[C@@]43CCCc4sc(N)c(C#N)c43)n2)N(C)C1 [II-152] | – | 13 | – | 3.1 | 16.8 | – | – | –
CO[C@@H]1C[C@@H]([C@H](C)Oc2cc(N3CCN(C)C4(COC4)C3)nc(-c3noc4c3CCC[C@@]43CCCc4sc(N)c(C#N)c43)n2)N(C)C1 [II-153] | – | 14 | 49 | 1.2 | 30 | – | – | –
C[C@H](Oc1cc(-n2cc3c(n2)CNC3)nc(-c2noc3c2CCC[C@@]32CCCc3sc(N)c(C#N)c32)n1)[C@@H]1C[C@@H](F)CN1C [II-154] | – | 39 | – | – | – | – | – | –
C[C@H](Oc1nc(-c2noc3c2CCC[C@@]32CCCc3sc(N)c(C#N)c32)nc(N2CCNC3(CC3)C2)c1Cl)[C@@H]1C[C@@H](F)CN1C [II-156] | – | 1 | – | – | 1.8 | – | – | –
C[C@H](Oc1nc(-c2noc3c2CCC[C@@]32CCCc3sc(N)c(C#N)c32)nc(N2C[C@H](C)NC3(CC3)C2)c1F)[C@@H]1C[C@@H](F)CN1C [II-157] | – | 2 | – | – | 0.7 | – | – | –
C[C@@H]1CN(c2nc(-c3noc4c3CCC[C@@]43CCCc4sc(N)c(C#N)c43)nc(O[C@@H](C)[C@@H]3C[C@@H](F)CN3C)c2F)CC2(CC2)N1 [II-158] | – | 9 | – | – | 0.4 | – | – | –
CC(C)N1CCCN(c2cc(-n3ccnc3)nc(-c3noc4c3CCC[C@@]43CCCc4sc(N)c(C#N)c43)n2)[C@@H](C)C1 [II-169] | 2280 | 1870 | 66 | – | 9.6 | – | – | –
C[C@H](Oc1cc(N2CCN(C)C3(CC3)C2)nc(-c2noc3c2CCC[C@@]32CCCc3sc(N)c(C#N)c32)n1)[C@@H]1CCCN1C [II-171] | 3060 | 5 | 63 | 3 | 8.2 | – | – | –

Compound | IC50 (NCI-H2122 cells) [nM] | IC50 (GP2D cells) [nM] | MBI 3A4 (CYP3A4) [%] | Papp A→B at 90 min, 10 μM [1] [×10⁻⁶ cm/s] | efflux ratio at 90 min, 10 μM [1] | IC50 (MKN1 cells; [2]) [nM] | IC50 (MKN1 cells; [3]) [nM] | IC50 (MKN1 cells; assay 3, CTG 120 h, read-out: MKN1 (assay 3) IC50) [nM]
C[C@H](Oc1cc(N2C[C@H](C)N(C)[C@@H](C)C2)nc(-c2noc3c2CCC[C@@]32CCCc3sc(N)c(C#N)c32)n1)[C@@H]1CCCN1C [II-173] | 1460 | 107 | 82 | 8.7 | 19.9 | – | – | –
C[C@H](Oc1cc(-n2cc3c(n2)CN(C)C3)nc(-c2noc3c2CCC[C@@]32CCCc3sc(N)c(C#N)c32)n1)[C@@H]1CCCN1C [II-174] | – | 3 | – | – | 5.8 | – | 341 | –
C[C@H](Oc1nc(-c2noc3c2CCC[C@@]32CCCc3sc(N)c(C#N)c32)nc(N2CCN(C)C3(CC3)C2)c1Cl)[C@@H]1C[C@@H](F)CN1C [II-176] | – | 50 | – | – | – | – | – | –
CCN1CCN(c2cc(O[C@@H](C)[C@@H]3C[C@@H](F)CN3C)nc(-c3noc4c3CCC[C@@]43CCCc4sc(N)c(C#N)c43)n2)CC12CC2 [II-185] | – | 15 | – | – | – | 1900 | > 949 | –
CO[C@H]1CCN(C)[C@@H]1[C@H](C)Oc1cc(N2CCN(C)C3(CC3)C2)nc(-c2noc3c2CCC[C@@]32CCCc3sc(N)c(C#N)c32)n1 [II-186] | – | 2 | – | 21 | 0.8 | 260 | 313 | –
CO[C@@H]1C[C@@H]([C@H](C)Oc2cc(N3CCNC4(CC4)C3)nc(-c3noc4c3CCC[C@@]43CCCc4sc(N)c(C#N)c43)n2)N(C)C1 [II-187] | – | 1 | – | 5.4 | 4.6 | 357 | 383 | –
C[C@H](Oc1cc(-n2ccc(C(=O)N[C@H]3CCOC3)n2)nc(-c2noc3c2CCC[C@@]32CCCc3sc(N)c(C#N)c32)n1)[C@@H]1CCCN1C [II-193] | – | – | 61 | – | – | – | – | 17
COCCNC(=O)c1ccn(-c2cc(O[C@@H](C)[C@@H]3CCCN3C)nc(-c3noc4c3CCC[C@@]43CCCc4sc(N)c(C#N)c43)n2)n1 [II-195] | – | – | 56 | 6.2 | 4.5 | 22 | – | –
C[C@H](Oc1cc(-n2cc3ccn([C@H]4CCOC4)c(=O)c3n2)nc(-c2noc3c2CCC[C@@]32CCCc3sc(N)c(C#N)c32)n1)[C@@H]1CCCN1C [II-202] | – | – | – | 4.4 | 3.6 | 27 | – | –
C[C@H](Oc1cc(-n2cc3ccn([C@@H]4CCOC4)c(=O)c3n2)nc(-c2noc3c2CCC[C@@]32CCCc3sc(N)c(C#N)c32)n1)[C@@H]1CCCN1C [II-203] | – | 137 | – | – | – | 63 | 41 | –
C[C@H](Oc1cc(-n2cc3ccn(C[C@H]4CCOC4)c(=O)c3n2)nc(-c2noc3c2CCC[C@@]32CCCc3sc(N)c(C#N)c32)n1)[C@@H]1CCCN1C [II-204] | – | 122 | – | – | – | 48 | 33 | –
C[C@H](Oc1cc(-n2cc3ccn(C4CCOCC4)c(=O)c3n2)nc(-c2noc3c2CCC[C@@]32CCCc3sc(N)c(C#N)c32)n1)[C@@H]1CCCN1C [II-206] | – | – | – | – | 16.8 | 34 | – | –
C[C@H](Oc1cc(-n2ccc(-c3cn(C4CCOCC4)nn3)n2)nc(-c2noc3c2CCC[C@@]32CCCc3sc(N)c(C#N)c32)n1)[C@@H]1CCCN1C [II-210] | – | – | – | – | 2.6 | 37 | – | –
C[C@H](Oc1cc(-n2ccc(-c3cn([C@@H]4CCOC4)nn3)n2)nc(-c2noc3c2CCC[C@@]32CCCc3sc(N)c(C#N)c32)n1)[C@@H]1CCCN1C [II-211] | – | – | – | – | 2.2 | 22 | – | –
C[C@H](Oc1cc(-n2ccc(-c3cn([C@H]4CCOC4)nn3)n2)nc(-c2noc3c2CCC[C@@]32CCCc3sc(N)c(C#N)c32)n1)[C@@H]1CCCN1C [II-212] | – | – | – | – | 2.9 | 17 | – | –
C[C@H](Oc1cc(-n2ccc(-c3cn(CC4(C)COC4)nn3)n2)nc(-c2noc3c2CCC[C@@]32CCCc3sc(N)c(C#N)c32)n1)[C@@H]1CCCN1C [II-213] | – | – | – | – | 2.6 | 12 | – | –

From US20240174690A1, “ANNULATED 2-AMINO-3-CYANO THIOPHENES AND DERIVATIVES FOR THE TREATMENT OF CANCER” (BOEHRINGER INGELHEIM INTERNATIONAL GMBH, priority 2021, published 2024)
